Laboratory results published in patent US4198506A, “2-Carboxyalkyl-2,3-dihydro-6-mercapto-s-triazolo[4,3-b]-pyridazin-3-ones” (Bristol-Myers Company, priority 1979, dated 1980).
In brackets after ≈: the same amount, converted by molar mass. Where two headings read alike, the source gives them in different places.

Experiments:
E. coli (sensitive) = assay: In vitro activity (geometric mean MIC, serial dilution); format: cell-based; details: Escherichia coli, read-out: Geometric Mean MIC
[1] = system: S. aureus penicillinase+); assay: as above; format: cell-based; details: Staphylococcus aureus, read-out: Geometric Mean MIC
Klebsiella sp. = assay: as above; format: cell-based; details: 12 strains, Mueller-Hinton agar, inoculum 10^4 dilution, MIC cutoff 200 mcg./ml., read-out: Geometric Mean MIC
Enterobacter (sensitive) = assay: as above; format: cell-based; details: 3 strains, Mueller-Hinton agar, inoculum 10^4 dilution, MIC cutoff 200 mcg./ml., read-out: Geometric Mean MIC
[2] = system: Proteus (indole +, cephalosporinase +); assay: as above; format: cell-based; details: 5 strains; Mueller-Hinton agar, inoculum 10^4 dilution; MIC cutoff 200 mcg./ml.; read-out: Geometric Mean MIC
Proteus (indole +) = assay: as above; format: cell-based; details: read-out: Geometric Mean MIC
[3] = system: 51 gram-positive and 96 gram-negative bacteria; assay: In vitro activity against 147 test organisms (overall comparison); format: cell-based; details: compared with BB-S483 and BB-S469, respectively
Protocol: The MIC's were determined by the serial dilution method using Mueller-Hinton agar against 51 gram-positive and 96 gram-negative bacteria. The 147 test organisms were classified into 16 groups according to the genera and the types of antibiotic resistance, 5 groups for gram-positive and 11 for gram-negative bacteria.

[4] = system: Enterobacter (Cephalosporinase +); assay: In vitro activity (geometric mean MIC, serial dilution); format: cell-based; details: 7 strains, Mueller-Hinton agar, inoculum 10^4 dilution, MIC cutoff 200 mcg./ml.
[5] = system: E. coli (Penicillinase +); assay: as above; format: cell-based; details: Escherichia coli; 7 strains; Mueller-Hinton agar, inoculum 10^4 dilution; MIC cutoff 200 mcg./ml.; read-out: Geometric Mean MIC
[6] = system: Miscellaneous (Salmonella, Shigella, Citrobacter); assay: microbe, parasite or virus in culture; details: read-out: Geometric Mean MIC
Proteus (indole-) = assay: In vitro activity (geometric mean MIC, serial dilution); format: cell-based; details: read-out: Geometric Mean MIC
E. coli Juhl = assay: In vivo activity (Mice, sc); details: Escherichia coli, several determinations listed, read-out: PD50
Description: (§1) |In vivo Activity of BB-[…] and Related Compounds (Mice, sc) | (PD50 (mgm./kg.)

S. aureus Smith = assay: In vivo activity (Mice, sc); details: Staphylococcus aureus, several determinations listed, read-out: PD50
Description: as §1

S. aureus (sensitive) = assay: In vitro activity (geometric mean MIC, serial dilution); format: cell-based; details: Staphylococcus aureus, read-out: Geometric Mean MIC
S. marcescens = assay: as above; format: cell-based; details: Serratia marcescens; 16 strains; Mueller-Hinton agar, inoculum 10^4 dilution; MIC cutoff 200 mcg./ml.; read-out: Geometric Mean MIC
[7] = system: S. aureus (Methicillin-R); assay: as above; format: cell-based; details: Staphylococcus aureus; 15 strains; Mueller-Hinton agar, inoculum 10^4 dilution; MIC cutoff 200 mcg./ml.
D. pneumoniae = assay: as above; format: cell-based; details: Streptococcus pneumoniae; 9 strains; Mueller-Hinton agar, inoculum 10^4 dilution; MIC cutoff 200 mcg./ml.
S. pyogenes = assay: as above; format: cell-based; details: Streptococcus pyogenes; 10 strains; Mueller-Hinton agar, inoculum 10^4 dilution; MIC cutoff 200 mcg./ml.
Providencia sp. = assay: as above; format: cell-based; details: 5 strains, Mueller-Hinton agar, inoculum 10^4 dilution, MIC cutoff 200 mcg./ml., read-out: Geometric Mean MIC
[8] = 13 strains, Mueller-Hinton agar, inoculum 10^4 dilution, MIC cutoff 200 mcg./ml.

## CNCc1ccsc1CC(=O)N[C@@H]1C(=O)N2C(C(=O)O)=C(CSc3ccc4nn(CC(=O)O)c(=O)n4n3)CS[C@H]12 [BB-S472, 7-(3-Methylaminomethyl-2-thienylacetamido)-3-(2-carboxymethyl-2,3-dihydro-s-triazolo[4,3-b]pyridazin-3-on-6-ylthiomethyl)-3-cephem-4-carboxylic Acid]
E. coli (sensitive); [8]
  MIC: 0.2 µg/mL (≈ 0.33 µM)
[1]
  MIC: 0.9 µg/mL (≈ 1.49 µM)
Klebsiella sp.
  MIC: 0.8 µg/mL (≈ 1.32 µM)
Enterobacter (sensitive)
  MIC: 1.3 µg/mL (≈ 2.15 µM)
[2]
  MIC: 8.3 µg/mL (≈ 13.7 µM)
Proteus (indole +)
  MIC: 0.3 µg/mL (≈ 0.495 µM)
[3]
  overall in vitro activity vs. non-N-methylated analogs: better overall activity than their non-N-methylated analogs
[4]
  MIC: 3.2 µg/mL (≈ 5.28 µM)
[5]
  MIC: 15 µg/mL (≈ 24.8 µM)
[6]
  MIC: 0.4 µg/mL (≈ 0.66 µM)
Proteus (indole-)
  MIC: 0.3 µg/mL (≈ 0.495 µM)
E. coli Juhl
  ED50: 0.19 mg/kg
S. aureus Smith
  ED50: 0.12 mg/kg
S. aureus (sensitive)
  MIC: 0.4 µg/mL (≈ 0.66 µM)
S. marcescens
  MIC: 200 µg/mL (≈ 330 µM)
[7]
  MIC: 58 µg/mL (≈ 95.8 µM)
D. pneumoniae
  MIC: 0.05 µg/mL (≈ 0.0826 µM)
S. pyogenes
  MIC: 0.05 µg/mL (≈ 0.0826 µM)
Providencia sp.
  MIC: 4.8 µg/mL (≈ 7.92 µM)

## NCc1ccsc1CC(=O)N[C@@H]1C(=O)N2C(C(=O)O)=C(CSc3ccc4nn(CC(=O)O)c(=O)n4n3)CS[C@H]12 [BB-S483, 7-(3-Aminomethyl-2-thienylacetamido)-3-(2-carboxymethyl-2,3-dihydro-s-triazolo[4,3-b]pyridazin-3-on-6-ylthiomethyl)-3-cephem-4-carboxylic Acid]
E. coli (sensitive)
  MIC: 0.3 µg/mL (≈ 0.507 µM)
[1]; [8]
  MIC: 1.1 µg/mL (≈ 1.86 µM)
Klebsiella sp.
  MIC: 1.1 µg/mL (≈ 1.86 µM)
Enterobacter (sensitive)
  MIC: 1.3 µg/mL (≈ 2.2 µM)
[2]
  MIC: 17 µg/mL (≈ 28.7 µM)
Proteus (indole +)
  MIC: 0.4 µg/mL (≈ 0.676 µM)
[4]
  MIC: 5.2 µg/mL (≈ 8.79 µM)
[5]
  MIC: 21 µg/mL (≈ 35.5 µM)
[6]
  MIC: 0.9 µg/mL (≈ 1.52 µM)
Proteus (indole-)
  MIC: 0.7 µg/mL (≈ 1.18 µM)
E. coli Juhl
  ED50: 0.15 mg/kg
S. aureus Smith
  ED50: 0.34 mg/kg
S. aureus (sensitive)
  MIC: 0.3 µg/mL (≈ 0.507 µM)
S. marcescens
  MIC: 81 µg/mL (≈ 137 µM)
[7]
  MIC: 48 µg/mL (≈ 81.1 µM)
D. pneumoniae
  MIC: 0.04 µg/mL (≈ 0.0676 µM)
S. pyogenes
  MIC: 0.08 µg/mL (≈ 0.135 µM)
Providencia sp.
  MIC: 2.1 µg/mL (≈ 3.55 µM)
